According to US4851387A, “5-substituted amino-4-hydroxy-pentanoic acid derivatives and their use” (Banyu Pharmaceutical Co., Ltd., priority 1986, dated 1989):

target: T1, renin (human plasma) (Homo sapiens, UniProt P00797); assay: Test example for renin inhibiting activities: angiotensin I formation in human plasma, measured by radio immunoassay; type: biochemical; details: 0.2M sodium phosphate buffer pH7.4, 37° C. for one hour, read-out: IC50 (mol), 50% inhibition concentration of renin inhibiting activity
T1 construct: from tissue; host or cells: human plasma
T1 sequence (P00797 67-406): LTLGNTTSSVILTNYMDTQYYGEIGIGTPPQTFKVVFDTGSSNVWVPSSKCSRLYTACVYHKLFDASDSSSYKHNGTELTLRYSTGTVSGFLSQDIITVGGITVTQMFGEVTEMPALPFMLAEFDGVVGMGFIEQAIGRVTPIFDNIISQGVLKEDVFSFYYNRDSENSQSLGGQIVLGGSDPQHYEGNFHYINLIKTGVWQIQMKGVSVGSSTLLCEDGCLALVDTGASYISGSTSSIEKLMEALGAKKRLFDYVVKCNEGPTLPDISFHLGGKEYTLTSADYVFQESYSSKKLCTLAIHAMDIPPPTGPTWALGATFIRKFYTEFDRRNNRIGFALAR
Experimental: To 156 μl of a 0.2M sodium phosphate buffer solution (pH7.4), 40 μl of a solution mixture of 34 mM 8-hydroxyquinoline and 100 mM disodium ethylenediaminetetraacetate, 4 μl of dimethyl sulfoxide or a dimethyl sulfoxide solution of an inhibitor and 200 μl of human plasma were added and reacted at 37° C. for one hour. Then, pepstatin was added thereto to terminate the reaction, and the amount of the resulting angiotension I was measured by radio immunoassay whereby the inhibiting activity was determined.

Compound | IC50
CCCCC(NC(=O)C(Cc1cccc2ccccc12)NC(=O)OCc1ccccc1)C(=O)N[C@@H](CC(C)C)[C@@H](O)CC(C(=O)NCC(C)C)C(C)C (mixture of isomers) [comparative compound, (2RS,4S,5S)-5-(L-N-benzyloxycarbonyl-naphthylalanyl-L-norleucyl)amino-4-hydroxy-2-isopropyl-7-methyl-octanoic acid isobutylamide, reference compound] | 40 nM
CCCCC(NC(=O)C(Cc1cccc2ccccc12)NC(=O)OCc1ccccc1)C(=O)N[C@@H](CC(C)C)[C@@H](O)CC(CCCO)C(=O)NCC(C)C (mixture of isomers) [Example 14(8), (2RS,4S,5S)-5-(L-N-benzyloxycarbonylnaphthylalanyl-L-norleucyl)amino-4-hydroxy-2-(3-hydroxypropyl)-7-methyl-octanoic acid isobutylamide] | 5 nM
(2RS,4S,5S)-5-(L-N-benzyloxycarbonylnaphthylalanyl-L-norleucyl)amino-4-hydroxy-2-(2-hydroxyethyl)-7-methyloctanoic acid isobutylamide [Example 15(3)] | 7 nM
